# Results taken from US6552000B2, “Anticonvulsant derivatives useful in treating autism” (Ortho-McNeil Pharmaceutical, Inc., priority 1999, dated 2003).
# How the values were obtained:
# [1] = tested on: simple and complex partial seizures and secondarily generalized seizures; settings: clinical trials of human epilepsy; adjunctive therapy or monotherapy; cited from earlier work
# kindled epilepsy = settings: animal model of kindled epilepsy; cited from earlier work
# partial onset seizures = test: placebo controlled, add on trials in partial onset seizures; assay type: in vivo; settings: adults and children with partial onset seizures
# Excerpt: There is also known enhancement of GABA activity in the brain along with reduced glutamate receptor activity. Accordingly, compounds of formula I are useful in the treatment of autism.
# seizures = settings: several rodent models of epilepsy; cited from earlier work
structure (smiles),measurement,setting,value
"CC1(C)O[C@@H]2[C@@H](CO[C@@]3(COS(N)(=O)=O)OC(C)(C)O[C@@H]23)O1 [topiramate, 2,3:4,5-bis-O-(1-methylethylidene)-β-D-fructopyranose sulfamate]",efficacy in treating simple and complex partial seizures and secondarily generalized seizures,[1],effective
same,block of seizures,kindled epilepsy,effectively block seizures
same,reduction of seizure rate versus placebo,partial onset seizures,statistically significant reduction of seizure rate
same,block of seizures,seizures,effectively block seizures
